The source of these data is US11458201B2, “Mucosal active agent delivery” (Suda Ltd., priority 2016, dated 2022).

Counter-ions that a name gives are not always drawn. Like-named read-outs stand apart in the source and are kept apart here.

The conditions of series [1]: cited from earlier work; for logP: as listed in table of actives by hydrotrope class; for log P: list of suitable active agents.
Series [2] is described as follows: In vitro single hydrotrope permeability experiments, coated artificial membranes (Franz cell). The format is in vitro ADME. The protocol:
The solutions thus contain the exact same concentration of active agent in the presence or absence of hydrotrope. The samples may then be tested for permeability through an artificial membrane under identical conditions so that the effect of the hydrotrope on the permeability of the active can be assessed.
Regenerated cellulose membrane filters are coated with lecithin in dodecane for permeation experiments. […] Air bubbles are removed before donor chamber is clamped. The filter is incubated for 1 h and any excess lecithin solution is then removed. All samples are continuously stirred on a magnetic plate at 300 rpm for duration of pre-incubation and subsequent permeation experiment.
After membrane preparation and equilibration, 240 uL each of formulation at buffer pH 6.8 are added to the donor chamber.

Another series concerns porcine buccal mucosa. As to the kind of experiment: Ex vivo permeability experiments, porcine buccal membranes in Franz cells. It counts as in vitro ADME, domestic pigs (Sus scrofa domestica). The protocol:
Buccal tissue from domestic pigs (Sus scrofa domestica) were obtained from a local abattoir directly after slaughter and immediately placed on ice. Within 2 hours of collection, tissue is prepared for delivery experiments. For permeation experiments tissue is placed in pH 6.8 PBS and epithelium separated from the connective tissue using surgical dissection or by contact in solution (pH 6.8 PBS) heated to 65° C. for 60 seconds. Surgical dissection is preferred method for maintaining intact epithelia with minimal impact on integrity which can occur with heating. After isolation, tissue is placed on Franz cell receiver chamber filled with PBS at pH optimised for permeant solubility and containing micro-stirring bar. Air bubbles are removed before donor chamber is clamped. The exposed epithelial surface is pre-incubated in pH 6.8 PBS in air incubator heated to 37° C. for minimum 15 minutes to equilibrate to temperature. All samples are continuously stirred on a magnetic plate at 300 rpm for duration of pre -incubation and subsequent permeation experiment. After equilibration, the donor chamber buffer is removed by pipette and replaced with active agent solution to be tested. […] At time 0 samples of 200 ul is removed from receiver chamber and 200 ul volume replaced with buffer. Samples taken at timed intervals (standard 15, 30, 60 minutes) are 200 ul volumes removed from side arm of receiver chamber using gel-loading pipette tips. Removed samples are placed in HPLC tubes for HPLC analysis. After each sample is taken the 200 ul volume is replaced with PBS […] buffer to maintain constant volume in receiver chamber (which will dilute slightly each subsequent sample).

Series [3] in a line: In vivo studies in rabbits, buccal administration, blood PK. Further details: species or system rabbits (Oryctolagus cuniculus) New Zealand White. To be noted: rabbit, buccal single dose 20 mg, 2.5% caffeine and 7.5% nicotinamide (F4) in comparison to the Base formulation, FIG. 14. The protocol:
Ten male rabbits (Oryctolagus cuniculus) Strain New Zealand White (NZW) aged 8-12 weeks were delivered 5 days prior to the experiment for acclimatisation. The animals were kept in a controlled environment (targeted ranges: temperature 21±3° C., humidity 30-70%), with a light/dark cycle each of 12 hours, and under barrier (quarantine) conditions. Temperature and relative humidity was monitored continuously throughout the study duration. Feed consisted of Rabbit and Guinea Pig pellets. Municipal town water was supplied ad libitum. Dietary enrichment was provided during the acclimation period in the form of fresh fruit and vegetables. Enrichment items were not provided following randomisation into study groups and during dose administration.
Prior to dose administration, a total of ten male NZW rabbits were randomized into two groups of five based on body weight. Each animal group was allocated to receive a different sildenafil Formulation (either sildenafil Formulation 4 (F4) or sildenafil Base formulation (see Example 2)). […]
Portions of whole blood (400 μL) were collected into K2EDTA blood tubes then centrifuged and the resulting […] prior to analysis by LC-MS/MS. Peak concentration in blood (Cmax), Time to reach Cmax (Tmax), half-life (t1/2) and area under curve (AUC) were calculated.

Where [4] appears, read: as listed with results of FIGS. 3-9.
[5] abbreviates: formulated with Class A hydrotrope caffeine, sweeteners and flavours vs same formulation minus the hydrotrope content, FIG. 13.
Setting [6] is: single hydrotrope screen, formulation at buffer pH 6.8, same active concentration with and without hydrotrope.
The mark [7] stands for this setting: sildenafil citrate formulations containing hydrotropes (Table 4) vs Base, FIGS. 11A and 11B.

Regarding `O=C(O)Cc1ccccc1Nc1c(Cl)cccc1Cl` [Diclofenac sodium, diclofenac sodium], the “log P or log D” value in series [1] (hydroalcoholic solution) is reported as 4.75. For the same compound, the “penetration through an artificial membrane in the presence of various hydrotropes (most effective hydrotrope)” value in series [2] (hydroalcoholic solution) is “caffeine most effective”.

Turning to `CN(C)CCOC(C)(c1ccccc1)c1ccccn1` (stereo not shown) [Doxylamine succinate, doxylamine succinate], in series [1], the logP is on record as 2.96. Besides, the “log P or log D” value in series [1] (setting [4]) is listed as 2.9. Further, in the series on porcine buccal mucosa (setting [5]), the early permeation entry is listed as “does not affect” and the total permeation entry was “increases total permeation”. Moreover, in series [2] (setting [6]), the “penetration through an artificial membrane in the presence of various hydrotropes (most effective hydrotrope)” value is recorded as “benzoic acid most effective”.

Consider `CC(C)Cc1ccc(C(C)C(=O)O)cc1` (stereo not shown) [Ibuprofen, ibuprofen], for which, in series [1] (setting [4]), the “log P or log D” value is reported as 3.5. Besides, the “penetration through an artificial membrane in the presence of various hydrotropes (most effective hydrotrope)” value in series [2] (setting [6]) is reported as “no improvement”.

As for `Cc1nccn1CC1CCc2c(c3ccccc3n2C)C1=O` (stereo not shown) [Ondansetron HCl, ondansetron hydrochloride], in series [1], the logP entry was “Ondansetron HCl (logP 2.4” and the “log P” value is recorded as 2.4. For the same compound, the “log P or log D” value in series [1] (setting [4]) is 2.4. Moreover, in series [2], the “hydrotrope class giving the greatest increases in permeability” value is reported as “Class A hydrotropes”. Also, the “penetration through an artificial membrane in the presence of various hydrotropes (most effective hydrotrope)” value in series [2] (setting [6]) is given as “nicotinamide or caffeine most effective”.

With `CCCc1nn(C)c2c(=O)[nH]c(-c3cc(S(=O)(=O)N4CCN(C)CC4)ccc3OCC)nc12` [Sildenafil citrate, sildenafil citrate], in series [1] (pH 7), the “log D” value is reported as 1.6 and the “log P or log D” value is 1.6. Moreover, the bioavailability of sildenafil result in series [3] is given as “marked increase”.

Take `CNS(=O)(=O)Cc1ccc2[nH]cc(CCN(C)C)c2c1` [Sumatriptan succinate, sumatriptan succinate]: in series [1], the logP entry is “Sumatriptan succinate (logP 0.93” and the “log P” value is 0.93. Besides, the “log P or log D” value in series [1] (setting [4]) is given as 1.7. Further, in series [1] (pH 6), the “log D” value is 1.7. In addition, the “penetration through an artificial membrane in the presence of various hydrotropes (most effective hydrotrope)” value in series [2] (setting [6]) is listed as “benzoic acid most effective”.

With `Cc1ccc(-c2nc3ccc(C)cn3c2CC(=O)N(C)C)cc1` [Zolpidem tartrate, zolpidem tartrate], in series [1], the logP entry is “Zolpidem tartrate (logP 1.2” and the “log P” value was 1.2. Further, the “log P or log D” value in series [1] (setting [4]) is on record as 1.2. Also, in series [2] (setting [6]), the “penetration through an artificial membrane in the presence of various hydrotropes (most effective hydrotrope)” value is “citric acid most effective”.

On to `Cn1c(=O)c2c(ncn2C)n(C)c1=O` [caffeine], for which, in the series on porcine buccal mucosa (setting [7]), the “effect on early permeation” value is “limited effect” and the “effect on total permeation” value is recorded as “increases total permeation”.

By logP is commonly meant the decadic logarithm of the partition coefficient of the neutral form, usually between octanol and water. Usually log P stands for the decadic logarithm of the partition coefficient of the neutral form, usually between octanol and water. As usually defined, the log D is lipophilicity at a set pH, counting ionised and neutral species.
